Where a name gives a salt, the structure may show the parent alone.
Legend:
[1] = target: T1, CCK-B (Cavia porcellus, UniProt H0VZC5); assay: displacement of specific 125I-CCK from guinea pig brain (CCK-B receptor binding); settings: read-out: CCK RECEPTOR BINDING RESULTS IC50 125I-CCK Brain
T1 construct: guinea pig brain (CCK-B); from tissue; host or cells: guinea pig brain
T1 sequence (H0VZC5 1-426): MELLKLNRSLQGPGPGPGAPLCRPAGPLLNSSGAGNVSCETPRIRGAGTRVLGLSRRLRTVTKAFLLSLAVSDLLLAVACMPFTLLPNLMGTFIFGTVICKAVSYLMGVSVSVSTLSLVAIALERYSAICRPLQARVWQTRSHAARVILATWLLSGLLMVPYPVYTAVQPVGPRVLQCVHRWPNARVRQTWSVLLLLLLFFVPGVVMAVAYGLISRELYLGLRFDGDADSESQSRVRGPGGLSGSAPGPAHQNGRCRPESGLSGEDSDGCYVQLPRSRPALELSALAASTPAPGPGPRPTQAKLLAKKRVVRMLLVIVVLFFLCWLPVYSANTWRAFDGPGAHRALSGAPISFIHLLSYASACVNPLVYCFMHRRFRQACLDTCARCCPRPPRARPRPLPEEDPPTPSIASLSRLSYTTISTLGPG
Description: (§1) The CCK-A and CCK-B antagonising activity of the compounds described herein was evaluated using the assays described in published European patent application no. 0514133. The method essentially involves determining the concentration of the test compound required to displace 50% of the specific ^125 I-CCK from rat pancreas (CCK-A) or guinea pig brain (CCK-B). The data in Table 1 were obtained for compounds of the Examples.

[2] = target: T2, CCK-A (Rattus norvegicus, UniProt P30551); assay: biochemical; type: binding; settings: rat pancreas (CCK-A), 125I-CCK; read-out: CCK RECEPTOR BINDING RESULTS IC50 125I-CCK Pancreas
T2 sequence (P30551 1-444): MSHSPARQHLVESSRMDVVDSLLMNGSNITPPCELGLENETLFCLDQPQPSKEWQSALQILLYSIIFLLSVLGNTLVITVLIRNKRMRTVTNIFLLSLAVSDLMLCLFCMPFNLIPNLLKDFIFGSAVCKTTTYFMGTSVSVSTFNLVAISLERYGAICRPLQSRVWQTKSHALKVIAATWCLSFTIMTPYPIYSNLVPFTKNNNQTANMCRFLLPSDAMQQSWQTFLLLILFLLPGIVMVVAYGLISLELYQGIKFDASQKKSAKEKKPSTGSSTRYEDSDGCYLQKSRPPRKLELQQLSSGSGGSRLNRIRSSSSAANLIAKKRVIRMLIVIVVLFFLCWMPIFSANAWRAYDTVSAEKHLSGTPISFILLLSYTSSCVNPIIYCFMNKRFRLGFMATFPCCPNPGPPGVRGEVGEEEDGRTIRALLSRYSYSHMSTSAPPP
Description: as §1, with “(CCK-B).” for “(CCK-B). The data in Table 1 were obtained for compounds of the Examples.”

SMILES | IC50 [1] | IC50 [2]
Cc1cccc(NC(=O)NC2N=C(N(C)C3CCCCCC3)c3ccccc3N(C)C2=O)c1 (racemic) [Example 66, N-[3(R,S)-5-(N-Cycloheptyl-N-methylamino)-2,3-dihydro-1-methyl-2-oxo-1H-1,4-benzodiazepin-3-yl]-N'-[3-methylphenyl]urea] | 0.79 nM | 83.6 nM
CN1C(=O)C(NC(=O)Nc2ccc3c(c2)CCC3)N=C(N(C)C2CCCCCC2)c2ccccc21 (racemic) [Example 69, N-[3(R,S)-5-(N-Cycloheptyl-N-methylamino)-2,3-dihydro-1-methyl-2-oxo-1H-1,4-benzodiazepin-3-yl]-N'-[5-indanyl]urea] | 2.82 nM | 469 nM
Cc1cccc(NC(=O)NC2N=C(N(C)Cc3ccccc3)c3ccccc3N(C)C2=O)c1 (racemic) [Example 72, N-[3(R,S)-5-(N-Benzyl-N-methylamino)-2,3-dihydro-1-methyl-2-oxo-1H-1,4-benzodiazepin-3-yl]-N'-[3-methylphenyl]urea] | 10.3 nM | 176 nM
Cc1cccc(NC(=O)NC2N=C(N(C)C3CCN(C)CC3)c3ccccc3N(C)C2=O)c1 (racemic) [Example 73, N-[3(R,S)-5-(N-(4-N-Methylpiperidinyl)-N-methylamino)-2,3-dihydro-1-methyl-2-oxo-1H-1,4-benzodiazepin-3-yl]-N'-[3-methylphenyl]urea] | 1410 nM | > 3000 nM
Cc1cccc(NC(=O)NC2N=C(N(C)CC3CCCCC3)c3ccccc3N(C)C2=O)c1 (racemic) [Example 74] | 7.3 nM | 192 nM
CCCN(CCC)C1=NC(NC(=O)Nc2cccc(C)c2)C(=O)N(C)c2ccccc21 (racemic) [Example 75, N-[3(R,S)-5-(N,N-Di-^npropylamino)-2,3-dihydro-1-methyl-2-oxo-1H-1,4-benzodiazepin-3-yl]-N-[3-methylphenyl]urea] | 46.9 nM | 314 nM
CCN(C1=NC(NC(=O)Nc2cccc(C)c2)C(=O)N(C)c2ccccc21)C1CCCC1 (racemic) [Example 76, N-[3(R,S)-5-(N-Cyclopentyl-N-ethylamino)-2,3-dihydro-1-methyl-2-oxo-1H-1,4-benzodiazepin-3-yl]-N'-[3-methylphenyl]urea] | 3.12 nM | 760 nM
Cc1cccc(NC(=O)NC2N=C(N(C)C3CCC(C)(C)CC3)c3ccccc3N(C)C2=O)c1 (racemic) [Example 77, N-[3(R,S)-5-(N-(4,4-Dimethylcyclohexyl)-N-methylamino)-2,3-dihydro-1-methyl-2-oxo-1H-1,4-benzodiazepin-3-yl]-N'-[3-methylphenyl]urea] | 81.1 nM | 135 nM
CCN(C1=NC(NC(=O)Nc2cccc(C)c2)C(=O)N(C)c2ccccc21)C1CCCCC1 (racemic) [Example 78, N-[3(R,S)-5-(N-Cyclohexyl-N-ethylamino)-2,3-dihydro-1-methyl-2-oxo-1H-1,4-benzodiazepin-3-yl]-N'-3-methylphenyl]urea] | 4.5 nM | 891 nM
CCCN(C1=NC(NC(=O)Nc2cccc(C)c2)C(=O)N(C)c2ccccc21)C1CCCCC1 (racemic) [Example 79, N-[3(R,S)-5-(N-Cyclohexyl-N-propylamino)-2,3-dihydro-1-methyl-2-oxo-1H-benzodiazepin-3-yl]-N'-[3-methylphenyl]urea] | 13.4 nM | 1700 nM
Cc1cccc(NC(=O)NC2N=C(N(Cc3ccccc3)C3CCCCC3)c3ccccc3N(C)C2=O)c1 (racemic) [Example 80, N-[3(R,S)-5-(N-Benzyl-N-cyclohexylamino)-2,3-dihydro-1-methyl-2-oxo-1H-1,4-benzodiazepin-3-yl]-N'-[3-methylphenyl]urea] | 32.4 nM | 1140 nM
Cc1cccc(NC(=O)NC2N=C(NC3CCCCC3)c3ccccc3N(C)C2=O)c1 (racemic) [Example 81, N-[3(R,S)-5(N-Cyclohexylamino)-2,3-dihydro-1-methyl-2-oxo-1H-1,4-benzodiazepin-3-yl]-N'-[3-methylphenyl]urea] | 23.2 nM | 14.9 nM
CN1C(=O)C(NC(=O)Nc2ccc3c(c2)CCC3)N=C(N(C)C2CCCCC2)c2ccccc21 (racemic) [Example 82, N-[3(R,S)-5-(N-Cyclohexyl-N-methylamino)-2,3-dihydro-1-methyl-2-oxo-1H-1,4-benzodiazepin-3-yl]-N'-[5-indanyl]urea] | 0.47 nM | 815 nM
Cc1cccc(NC(=O)NC2N=C(N(C)C3CCCCCCC3)c3ccccc3N(C)C2=O)c1 (racemic) [Example 83, N-[3(R,S)-5-(N-Cyclooctyl-N-methylamino)-2,3-dihydro-1-methyl-2-oxo-1H-1,4-benzodiazepin-3-yl]-N'-[3-methylphenyl]urea] | 3.67 nM | 283 nM
Cc1cccc(NC(=O)NC2N=C(NCCN(C)C)c3ccccc3N(C)C2=O)c1 (racemic) [Example 84, N-[3(R,S)-2,3-Dihydro-5-(2-(N,N-dimethylamino)ethylamino)-1-methyl-2-oxo-1H-1,4-benzodiazepin-3-yl]-N'-[3-methylphenyl]urea dihydrochloride] | 1900 nM | > 3000 nM
Cc1cccc(NC(=O)NC2N=C(N(C)CCN3CCOCC3)c3ccccc3N(C)C2=O)c1 (racemic) [Example 85, N-[3(R,S)-2,3-Dihydro-5-(N-(2-N-morpholinoethyl)-N-methylamino)-1-methyl-2-oxo-1H-1,4-benzodiazepin-3-yl]-N'-[3-methylphenyl]urea] | 785 nM | > 3000 nM
Cc1cncc(NC(=O)NC2N=C(N(C)C3CCCCCC3)c3ccccc3N(C)C2=O)c1 (racemic) [Example 86, N-[3(R,S)-5-(N-Cycloheptyl)-N-methylamino)-2,3-dihydro-1-methyl-2-oxo-1H-1,4-benzodiazepin-3-yl]-N'-[3-(5-methylpyridine)]urea] | 31.3 nM | 831 nM
CN1C(=O)C(NC(=O)c2cc3ccccc3[nH]2)N=C(N2CC3CCC(CC3)C2)c2ccccc21 (racemic) [Example 87, 3(R,S)-N-(5-(3-Azabicyclo[3,2,2]nonan-3-yl)-2,3-dihydro-1-methyl-2-oxo-1H-1,4-benzodiazepin-3-yl)-1H-indole-2-carboxamide] | 509 nM | 0.87 nM
CC(C)CN1C(=O)C(NC(=O)c2cc3ccccc3[nH]2)N=C(N2CCCCCC2)c2ccccc21 (racemic) [Example 90, 3(R,S)-N-(2,3-Dihydro-5-(homopiperidin-1-yl)-1-(2-methylpropyl)-2-oxo-1H-1,4-benzodiazepin-3-yl)-1H-indole-2-carboxamide] | 225 nM | 8.7 nM
CC(C)CN1C(=O)C(NC(=O)Cc2c[nH]c3ccccc23)N=C(N2CCCCCC2)c2ccccc21 (racemic) [Example 94, 3(R,S)-N-(2,3-Dihydro-5-(homopiperidin-1-yl)-1-(2-methylpropyl)-2-oxo-1H-1,4-benzodiazepin-3-yl)-1H-indole-3-acetamide] | 119 nM | 646 nM
CC(C)CN1C(=O)C(NC(=O)c2cc3ccccc3[nH]2)N=C(N2CCC(C)CC2)c2ccccc21 (racemic) [Example 95, 3(R,S)-N-(2,3-Dihydro-5-(4-methylpiperidin-1-yl)-1-(2-methylpropyl)-2-oxo-1H-1,4-benzodiazepin-3-yl)-1H-indole-2-carboxamide] | 161 nM | 11.6 nM
CC1CCN(C2=NC(NC(=O)Nc3cccc(N4CCN(C)CC4)c3)C(=O)N(C)c3ccccc32)CC1 (racemic) [Example 96, N-[3(R,S)-2,3-Dihydro-1-methyl-5-(4-methylpiperidin-1-yl)-2-oxo-1H-1,4-benzodiazepin-3-yl]N'-[3-(N-methyl-N'-piperazinyl)phenyl]urea] | 148 nM | 94.1 nM
Cc1cccc(NC(=O)NC2N=C(N3C[C@H]4CCCC[C@H]4C3)c3ccccc3N(C)C2=O)c1 (relative stereo) [Example 57, N-[3(R,S)-2,3-Dihydro-1-methyl-5-(cis-octahydroisoindol-2-yl)-2-oxo-1H-1,4-benzodiazepin-3-yl]-N'-[3-methylphenyl]urea] | 4.6 nM | 12.3 nM
CN1C(=O)C(NC(=O)Nc2ccc3c(c2)CCC3)N=C(N2CCC(C)(C)CC2)c2ccccc21 (single isomer, unassigned) [5 (enantiomer A)] | 0.49 nM | 738 nM

Source: patent publication US5618812A, “Benzodiazepine derivatives” (Merck Sharp & Dohme, Ltd., priority 1992, dated 1997)
